Measured values published in US9233954B2, “Organic amine salts of Azilsartan, preparation method and use thereof” (Jiangsu Hansoh Pharmaceutical Co., Ltd., priority 2011, dated 2016).
Where two headings read alike, the source gives them in different places.

Key:
[1] = tested on: blood pressure of SHR rats; assay: Antihypertensive effect test for spontaneously hypertensive (SHR) rats; assay type: in vivo; details: 10 mg/kg
Method: Antihypertensive Effect Test For Spontaneously Hypertensive (SHR) Rats
38 of 25 week old SHR male rats were randomly divided into 4 groups according to the initial blood pressure, with 6 for the control group (solvent) and 8 for other groups. 10 mg/kg of example 2 compound (Choline Azilsartan), example 4 compound (Azilsartan ethanolamine salts) and control (Azilsartan medoxomil potassium salt) were continuously administered, respectively. The solvent control group was administered solvent. The administration volume was 5 ml/kg and the period was 2 weeks.

[2] = tested on: hypertension rats induced by Angiotensin II; assay: Effect on the hypertension rats induced by angiotensin II (DSI telemetry); assay type: in vivo, Sprague-Dawley rats; details: for The average MBP over 23 hours before administration: baseline before single intragastric dose; for The average MBP over 23 hours before administration / Average blood pressure 1 hr after administration / Average blood pressure 2 hr after administration / Average blood pressure 3 hr before administration / Average blood pressure 7 hr after administration / Average blood pressure 13 hr after administration / Average blood pressure 13 hr before administration / Average blood pressure 18 hr after administration / Average blood pressure 23 hr after administration / Average blood pressure 23 hr before administration / The average MBP over 23 hours after administration: Mean±S.E., N=8; for Average ratio of reduction of the average blood pressure: average value after administration over 23 hours
Method: The Effect on the Hypertension Rats Induced by Angiotensin II
The dosage of angiotensin II was determined according to literature (Harrison-Bernard L M, Zhuo J, Kobori H, Ohishi M, Navar L G. Intrarenal A T (1) receptor and ACE binding in ANG II-induced hypertensive rats. Am. J. Physiol. Renal Physiol. 2002 January; 282(1):F19-25; Diz D I, Baer P G, Nasjletti A. Angiotensin II-induced hypertension in the rat. Effects on the plasma concentration, renal excretion, and tissue release of prostaglandins. J. Clin. Invest. 1983 August; 72(2):466-77.). Angiotensin II was precisely weighed and diluted with sterile saline up to a concentration of 14.4 mg/mL, then mixed slightly until clear and stored at −20° C. in the dark.
HS-10149 suspension: the compounds were precisely weighed and diluted with 2% of Ceolus suspension in a gradient of 0.20 mg/ml, 0.06 mg/ml, 0.02 mg/ml, then the suspension was stirred until dissolution and stored at 4° C. in the dark. The sample was warmed to room temperature in advance before administration and mixed to uniform.
The animals with required weight (female: 230-250 g, male: 200-220 g) were selected after adaptation for one week. The male rats were subjected to combined anesthesia of ketamine (44 mg/kg, im.) and 2% pentobarbital sodium solution (30 mg/kg, ip), and the female rates were narcotized with 2% pentobarbital sodium solution (40 mg/kg, ip). The implants were implanted on day 0 and the blood pressure was continuously monitored for 24 hours from the 7th day after implantation of a micro osmotic pump. The animals with mean systolic blood pressure (MSBP) up to 140 mmHg over 24 hours were considered as standard screening animals. The qualified animals were used in the test and the unqualified animals were excluded.
The qualified animals were divided into groups according to their MSBP over 24 hours, 8 animals for each group with half female and half male. 8 animals for each group met the requirement of statistical tests and the requirement of pharmacodynamics guiding principles.
After grouping, the solvent control, low, middle and high dosage animal groups were intragastrically administered with 2% Ceolus, 0.1 mg/kg, 0.3 mg/kg and 1.0 mg/kg of HS-10149, respectively. The administration time was 10:00 and 10:30 a.m. and the administration volume was 5 mL/kg.
(4) Experimental Process Healthy animals were implanted with implants at day 0 and a micro osmotic pump was implanted subcutaneously at day 8. The blood pressure was monitored for 24 hours from the 15th day and the animals with qualified blood pressure were selected to test. Positive drug or test sample was administered once at 10:00 a.m. on the 16th day and the blood pressure was monitored after administration for 24 hours. At the end of the test, the animals were sacrificed by excessive carbon dioxide. 5. Handling and Analysis of Data
The data were recorded every 5 s automatically by the DSI remote sensing pressure measuring device. The mean value calculated within an hour as unit by the software was considered as initial data.

Beagle dog = assay type: in vivo; details: for Clinical observations: intragastric
Excerpt: Acute Toxicity Test Research for Beagle Dog
Object: Approximate lethal dose method was introduced in the test to observe the acute toxicity response of the animals by intragastric administration of example 2 or Azilsartan medoxomil potassium salt to Beagle dogs to study the toxicity situation of example 2 after administration and compare the toxicity of example 2 and Azilsartan medoxomil potassium salt, which can provide reference confirmation for the evaluation of toxicity of example 2.
Method (approximate lethal dose method): 6 Beagle dogs were used, 3 for each of example 2 group and Azilsartan medoxomil potassium salt group. The administration dosage was 0.09, 0.13, 0.19, 0.28, 0.42, 0.63, 0.95, 1.42, 2.13, 3.20 g·kg^−1 respectively, wherein 3.20 g·kg^−1 was the maximum administration dosage (corresponding to 1081 times the given dosage for the clinical patient). The blood was collected before administration and on days 2, 7, and 14 after administration to test the corresponding biochemical indicators. Electrocardiogram, body weight, and body temperature were determined before administration and on days 7 and 14 after administration.

[3] = rat, in vivo, po
Method: Drug Metabolism Test of Sprague Dawley (SD) Rats after Administration
Twelve SD rats that weighed 200-250 g were randomly divided into two groups with each group having 6 rats, half male and half female. […] 0.5 ml blood were collected from orbit before administration and at 0.5, 1.0, 2.0, 3.0, 4.0, 5.0, 7.0, 10, 24 and 48 h after administration. Plasma concentration of Azilsartan (TAK-536), M1 (product of decarboxylation of Azilsartan) and M2 (product of O-dealkylation) was measured.

[4] = Beagle dog, intragastric administration
[5] = all of the animals in the group, 1.42-3.20 g·kg^−1

## CCOc1nc2cccc(C(=O)O)c2n1Cc1ccc(-c2ccccc2-c2noc(=O)[nH]2)cc1.CCOc1nc2cccc(C(=O)[O-])c2n1Cc1ccc(-c2ccccc2-c2noc(=O)[nH]2)cc1.C[N+](C)(C)CCO [Example 2]
[1]; SHR rats, 2 weeks
  Antihypertensive effect compared with control (Azilsartan medoxomil potassium salt): superior to the antihypertensive effect of control
  Antihypertensive effect, ranking under the same dosage: optimal
[1]; continuously administered for one or two weeks, FIG. 4
  Effect on blood pressure of SHR rats compared with solvent control: reduce the blood pressure of SHR rats significantly
[2]; 0.1 mg/kg group
  The average MBP over 23 hours before administration: 146 ± 5 mmHg
  Average blood pressure 1 hr after administration: 128 ± 8
  Average blood pressure 2 hr after administration: 102 ± 9
  Average blood pressure 3 hr before administration: 128 ± 9
  Average blood pressure 7 hr after administration: 91 ± 5
  Average blood pressure 13 hr after administration: 110 ± 3
  Average blood pressure 13 hr before administration: 144 ± 7
  Average blood pressure 18 hr after administration: 114 ± 3
  Average blood pressure 23 hr after administration: 109 ± 5
  Average blood pressure 23 hr before administration: 142 ± 8
[2]; 0.1 mg/kg single intragastric dose
  The average MBP over 23 hours after administration: 110 ± 3 mmHg
[2]; 0.1 mg/kg to 1.0 mg/kg
  Antihypertension effect in the hypertension rat models induced by angiotensin II: significant antihypertension effect
[2]; 0.1 mg/kg
  Average ratio of reduction of the average blood pressure: 24.7%
[2]; 0.3 mg/kg group
  The average MBP over 23 hours before administration: 145 ± 5 mmHg
  Average blood pressure 1 hr after administration: 119 ± 11
  Average blood pressure 2 hr after administration: 83 ± 6
  Average blood pressure 3 hr before administration: 124 ± 10
  Average blood pressure 7 hr after administration: 77 ± 4
  Average blood pressure 13 hr after administration: 91 ± 8
  Average blood pressure 13 hr before administration: 150 ± 6
  Average blood pressure 18 hr after administration: 108 ± 10
  Average blood pressure 23 hr after administration: 93 ± 3
  Average blood pressure 23 hr before administration: 147 ± 8
[2]; 0.3 mg/kg single intragastric dose
  The average MBP over 23 hours after administration: 88 ± 7 mmHg
[2]; 0.3 mg/kg
  Average ratio of reduction of the average blood pressure: 39.3%
[2]; 1.0 mg/kg group
  The average MBP over 23 hours before administration: 147 ± 5 mmHg
  Average blood pressure 1 hr after administration: 118 ± 6
  Average blood pressure 2 hr after administration: 85 ± 5
  Average blood pressure 3 hr before administration: 129 ± 9
  Average blood pressure 7 hr after administration: 74 ± 4
  Average blood pressure 13 hr after administration: 76 ± 6
  Average blood pressure 13 hr before administration: 149 ± 7
  Average blood pressure 18 hr after administration: 80 ± 5
  Average blood pressure 23 hr after administration: 81 ± 5
  Average blood pressure 23 hr before administration: 146 ± 9
[2]; 1.0 mg/kg single intragastric dose
  The average MBP over 23 hours after administration: 81 ± 5 mmHg
[2]; 1.0 mg/kg
  Average ratio of reduction of the average blood pressure: 44.9%
[2]; single intragastric administration
  Minimum effective dose: 0.1 mg/kg
[2]; single intragastric administration, 0.1-1.0 mg/kg
  Duration of the effect after single administration: about 23 hours
Beagle dog; 1.42 g·kg^−1 dosage group
  Dissection findings: the stomach was filled and contained amounts of particle food; the cardiac mucosa was red and showed sporadic red dot; other viscera did not show anomalies
Beagle dog; 1.42 g·kg^−1 dosage group, Beagle dog
  Clinical observations: liquid stools and less moving, moving reduction on day 2 after administration, the moving recovered to normal on day 3 and no abnormality was observed after day 3
Beagle dog; 2.13 g·kg^−1 dosage group, Beagle dog
  Clinical observations: on the day of administration no abnormality was observed and the animals showed vomit, moving reduction on day 2 after administration, loose stools and moving recovered on day 3, and the excreta recovered to normal on day 4 and no abnormality observed after day 4
Beagle dog; 2.13 g·kg^−1 dosage group, day 15
  Dissection findings: the stomach was filled and contained amounts of particle food; the cardiac mucosa was red and showed sporadic red dot; other viscera did not show anomalies
Beagle dog; 3.20 g·kg^−1 dosage
  Blood biochemical indicators: ALT of dogs with 3.20 g·kg^−1 dosage was increased on day 2 and recovered to normal on day 7
  Fib: increased significantly on day 2 after administration
Beagle dog; 3.20 g·kg^−1 dosage group
  Histopathology (HE, light microscope): did not show obvious anomalies
Beagle dog; 3.20 g·kg^−1 dosage group, Beagle dog
  Clinical observations: loose stools, liquid stools, vomit until the end of the observation and showed liquid stools, moving reduction on day 2 after administration, showed loose stools on day 3 and the moving recovered, the excreta recovered to normal on day 4 and no abnormality observed after that
Beagle dog; 5 animals of the two groups together
  Systolic blood pressure and diastolic blood pressure: reduced more or less on day 2 after administration
Beagle dog; [4]
  Acute toxicity, comparison: lower than that of Azilsartan medoxomil potassium salt
  Approximate lethal dose: more than 3.20 g·kg^−1
Beagle dog; [5]
  Body temperature: no abnormality on day 7 after administration
  Body weight: decreased on day 7 after administration compared with pre-administration
  Electrocardiogram and haematological indicators: not abnormal on day 7 after administration
Beagle dog; all the animals of the group, after vs. pre-administration
  PT values: reduced significantly after administration compared to pre-administration
Beagle dog; all the dogs of the group (1.42, 2.13, 3.20 g·kg^−1)
  Blood biochemical indicators: CRE, UREA and UA of all the dogs administered Example 2 compound were increased significantly on day 2 after administration, the CRE and UA increased significantly on day 7 after administration, and they recovered to normal on day 14
[3]
  Increase of AUC of Azilsartan acid in the plasma: 70%
  Increase of Cmax of Azilsartan acid in the plasma: 98%
